Test results taken from patent US8741951B2, “Non-steroidal compounds for androgen receptor modulation” (CNR—Consiglio Nazionale delle Ricerche, priority 2009, dated 2014).
Entries after “also recorded” stand apart in the source; their conditions may differ. Like-named read-outs stand apart in the source and are kept apart here.

How the values were obtained:
[1] = test system: LNCaP cells; test: SRB in vitro chemosensitivity assay, LNCaP; assay type: cell-based
Method: (§1) The cell lines were maintained as a monolayer at 37° C. and subcultured weekly. Culture medium was composed of RPMI 1640 supplemented with 10% fetal calf serum and 1% glutamine (Mascia Brunelli s.p.a., Milan, Italy). Cells were used in the exponential growth phase in all the experiments.
(§2) Compounds were dissolved in acetone or DMSO (AITES) ([…]) and stored at −20° C. The cell culture containing acetone at the highest concentration was used as the control.
(§3) Sulforhodamine B (SRB) assay was used according to the method by Skehan et al. (JNCI, 1990). Briefly, cells were collected by trypsinization, counted and plated at a density of 5,000 cells/well in 96-well flat-bottomed microtiter plates (100 μl of cell suspension/well). In the chemosensitivity assay, experiments were run in octuplicate, and each experiment was repeated three times. The optical density (OD) of cells was determined at a wavelength of 490 nm by a colorimetric plate reader.
(§4) If ODtreated is above ODzero, treatment has induced a cytostatic effect, whereas if ODtreated is below ODzero, cell killing has occurred. The ODzero depicts the cell number at the moment of drug addition, the ODcontrol reflects the cell number in untreated wells and the ODtreated reflects the cell number in treated wells on the day of the assay.
(§5) FIGS. 2-11 show the cytotoxic activity of the derivative compounds of the invention on the LNCaP and LNCaP-AR cell lines. The authors examined the antitumour activity of the compounds for which the synthesis is described above, in the hormone-sensitive prostate cancer cell line LNCaP and in its derivative cell line LNCaP-AR, expressing high level of AR and with hormone refractory prostate cancer (HRPC) features. The novel compounds were tested at the increasing concentrations of […], 0.2, 2.0, and 20.0 μM. The highest dose used was chosen on the basis of the clinically achievable peak plasma concentration reported in the literature for bicalutamide (Cockshott I D. Clin Pharmacokinet. 2004; 43(13): 855-78). After 144-hr exposure time the cytotoxic effect of the molecules was calculated according to the method of Monks et al. (Monks A, Scudiero D, Skehan P, et al. Feasibility of a high-flux anticancer drug screen using a diverse panel of cultured human tumor cell lines. J Natl Cancer Inst. 1991; 83: 757-66.)

[2] = test system: DU145 cell line; test: SRB cytotoxicity, DU145; assay type: cell-based, human; conditions: DU145 (no AR), 144 h, up to 20 μM
Method: (§6) FIGS. 16-25: cytotoxic effect of compounds (R)-XXIII-2, (R)-XXIII-3, (R)-XXIII-4, (R)-XXIII-5, (R)-XXIII-6, (R)-XXIII-7, (R)-XXIII-8, (R)-XXIII-9, (R)-XXIII-10, (R)-XXIV-9 on PC-3 and DU-145 cell lines at different concentration (0.02, 0.2, 2, 20 μM) after 144 h exposure. On the x-axis is reported the concentration, while on the y-axis is reported the inhibition of the net growth (% net growth).
as §3, §4

[3] = test system: LNCaP-AR cells; test: SRB in vitro chemosensitivity assay, LNCaP-AR; assay type: cell-based; conditions: for cytotoxic effect (cytostatic / cytocidal), in words: LNCaP-AR
Method: as §1, §2, §3, §4, §5

[4] = test system: PC-3 cell line; test: SRB cytotoxicity, PC-3; assay type: cell-based, human; conditions: PC-3 (no AR), 144 h, up to 20 μM
Method: as §6, §3, §4

[5] = test system: human hepatoblastoma cell line HepG2; test: Cytotoxic activity on HepG2 (hepato-toxicity); assay type: cell-based; conditions: HepG2, up to highest concentration tested
Method: as §3, §4
FIG. 27-36 show the cytotoxic activity of the drugs on the human hepatoblastoma cell line HepG2. The authors evaluated in vitro the potential hepato-toxicity of some of the novel compounds on HepG2 cell line, a human hepatoblastoma cell line that retains the specialized function of normal hepatocytes [Knowles B B, Howe C C, Aden D P. Human hepatocellular carcinoma cell lines secretes the major plasma proteins and hepatitis B surface antigen. Science 1980, 209:497-499; Aden D P, Vogel A, Plortkin S, Damjanov I, Knowles B B. Controlled synthesis of HBS Ag in a differentiated human liver carcinoma-derived cell line. Nature, 1979, 282:615-616].

[6] = target: T1, human androgen receptor (hAR) (Homo sapiens, UniProt P10275); test: hAR transactivation assay (ARE-luc) in Cos-7 cells; assay type: cell-based
T1 construct: expressed in transfected cells; host or cells: Cos-7
T1 sequence (P10275 1-920): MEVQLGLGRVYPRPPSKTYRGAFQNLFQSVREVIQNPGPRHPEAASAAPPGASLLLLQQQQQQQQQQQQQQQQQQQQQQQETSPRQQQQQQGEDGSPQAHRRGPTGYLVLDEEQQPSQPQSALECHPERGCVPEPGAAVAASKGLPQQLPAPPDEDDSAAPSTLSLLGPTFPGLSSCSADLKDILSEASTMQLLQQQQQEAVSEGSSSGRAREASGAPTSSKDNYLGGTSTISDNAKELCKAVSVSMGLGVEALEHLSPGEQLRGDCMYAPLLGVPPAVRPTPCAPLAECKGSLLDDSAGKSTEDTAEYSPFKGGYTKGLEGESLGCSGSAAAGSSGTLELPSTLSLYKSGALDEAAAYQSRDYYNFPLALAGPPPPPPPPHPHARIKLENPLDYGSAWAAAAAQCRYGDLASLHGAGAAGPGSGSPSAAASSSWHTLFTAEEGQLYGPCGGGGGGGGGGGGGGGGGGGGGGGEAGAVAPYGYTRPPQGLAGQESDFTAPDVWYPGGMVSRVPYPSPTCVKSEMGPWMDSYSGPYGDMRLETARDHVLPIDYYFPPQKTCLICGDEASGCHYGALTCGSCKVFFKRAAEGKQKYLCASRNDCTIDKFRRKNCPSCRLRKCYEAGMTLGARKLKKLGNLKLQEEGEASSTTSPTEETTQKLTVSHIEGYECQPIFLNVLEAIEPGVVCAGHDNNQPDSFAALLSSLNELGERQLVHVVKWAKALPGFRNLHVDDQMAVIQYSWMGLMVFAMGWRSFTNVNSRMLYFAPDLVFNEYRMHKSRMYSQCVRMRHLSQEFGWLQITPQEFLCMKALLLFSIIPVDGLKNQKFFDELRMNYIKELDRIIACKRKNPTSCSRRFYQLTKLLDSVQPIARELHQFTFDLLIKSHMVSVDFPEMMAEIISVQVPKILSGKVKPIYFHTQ
From the text: The cDNA coding hAR was cloned into the pSG5 expression vector as reported previously [Chang, C. S., J. Kokontis, and S. T. Liao 1988 Molecular cloning of human and rat complementary DNA encoding androgen receptors Science 240:324-326].
The 3416 construct (ARE-Luc), containing four copies of the wild-type slp-HRE2 (5′-TGGTCAgccAGTTCT-3′) was cloned in the NheI site in pTK-TATA-Luc [Verrijdt, G., E. Schoenmakers, A. Haelens, B. Peeters, G. Verhoeven, W. Rombauts, and F. Claessens 2000 Change of specificity mutations in androgen selective enhancers J. Biol. Chem. 275:12298-12305].
For androgen-stimulated transcriptional analysis, 32×10^4 Cos-7 cells were plated in phenol red-free DMEM containing 5% charcoal-stripped serum. After 48 h, the cells were transfected by Superfect (Qiagen) with 0.3 μg of 3416-pTK-TATA-Luc construct, together with 1.5 μg of either pSG5-empty plasmid or pSG5-hAR expressing plasmid. […] When indicated, the synthetic compounds were added alone to the cell medium. […] It was dissolved in 0.001% (final concentration) ethanol. Control cells were treated with the vehicle alone. Lysates were prepared and the luciferase activity was measured using a luciferase assay system (Promega). The results were corrected using CH110-expressed beta-galactosidase activity (Amersham Biosciences) and luciferase activity was expressed as fold induction. Results were obtained from two or three different experiments, each performed in duplicate. Mean and SEM are shown.

[7] = Homo sapiens, LNCaP, 144 h, read-out: LC50, LNCaP cells, 144 h exposure, up to 20 μM
[8] = read-out: LC50, LNCaP cells, 144 h exposure, up to 20 μM
[9] = LNCaP-AR cells, 144 h exposure, up to 20 μM
[10] = LNCaP cells, 144 h exposure, up to 20 μM

| Compound | GI50 ([1]; Homo sapiens, LNCaP, 144 h) [µM] | LC50 [1, 7] [µM] | cytotoxic effect (cytostatic / cytocidal), in words ([1]; LNCaP, 144 h, up to 20 μM) | LC50 [1, 8] [µM] | cytotoxic activity, in words [2] | GI50 ([3]; Homo sapiens, LNCaP/AR, 144 h) [µM] | LC50 [3, 9] | cytotoxic activity, in words [4] | hepato-toxicity, in words [5] | cytotoxic effect (cytostatic / cytocidal), in words ([3]; 144 h, up to 20 μM) | also measured |
| --- | --- | --- | --- | --- | --- | --- | --- | --- | --- | --- | --- |
| N#Cc1ccc(C[C@](O)(CS(=O)(=O)c2ccc(F)cc2)C(=O)Nc2ccc(C#N)c(C(F)(F)F)c2)cc1 [(R)-XXIII-7] | 1.4 | 16.2 to 20 | cytocidal effect | 20 | negligible cytotoxic activity | 1.8 | n.r. | negligible cytotoxic activity | did not display toxicity |  |  |
| N#Cc1ccc(NC(=O)[C@](O)(Cc2cc(F)cc(F)c2)CS(=O)(=O)c2ccc(F)cc2)cc1C(F)(F)F [(R)-XXIII-9] | 5.7 | 16.2 to 20 | cell killing activity | 19.7 | maintain their cytostatic and cytocidal activity reaching LC50 values | 8.2 | n.r. | maintain their cytostatic and cytocidal activity reaching LC50 values | Hepato-toxicity was observed | cell killing activity | LC50 [5]: not able to reach LC50 value |
| C[C@](O)(CS(=O)(=O)c1ccc(F)cc1)C(=O)Nc1ccc(C#N)c(C(F)(F)F)c1 [(R)-Bicalutamide, reference compound] |  |  |  |  |  |  | n.r. |  |  |  | GI50 ([1]; Homo sapiens, LNCaP cells, 144 h exposure, up to 20 μM, read-out: GI50): 1.8 µM; LC50 [1, 10]: n.r.^a; LC50 ([1]; LNCaP cells, 144 h exposure, up to 20 μM, listed as bicalutamide): not observed; GI50 [3, 9]: n.r.; LC50 ([3]; LNCaP-AR cells, 144 h exposure, up to 20 μM, listed as bicalutamide): not observed |
| N#Cc1ccc(NC(=O)[C@](O)(Cc2ccc(C(F)(F)F)cc2)CS(=O)(=O)c2ccc(F)cc2)cc1C(F)(F)F [(R)-XXIII-5] | 2 | 16.2 to 20 | cell killing activity | 16.2 |  | 1.9 | n.r. |  | did not display toxicity | cell killing activity | inhibition of R1881-induced AR transcriptional activation (antagonistic activity), in words ([6]; compound 10 μM with 10 nM R1881): A more robust inhibition; agonistic activity on AR transcription, in words ([6]; compound alone, 10 nM to 1 μM or 10 μM): do not exhibit agonistic activity; cytotoxic activity, in words ([2]; listed as (R)-XIII-5): negligible cytotoxic activity; also recorded: reduced cytotoxic propriety; cytotoxic activity, in words ([4]; listed as (R)-XIII-5): negligible cytotoxic activity; also recorded: reduced cytotoxic propriety |
| N#Cc1ccc(NC(=O)[C@](O)(Cc2cccc3ccccc23)CS(=O)(=O)c2ccc(F)cc2)cc1C(F)(F)F [(R)-XXIII-10] | 6.1 | 16.2 to 20 | cell killing activity | 19.7 | maintain their cytostatic and cytocidal activity reaching LC50 values | 8.3 | n.r. | maintain their cytostatic and cytocidal activity reaching LC50 values | Hepato-toxicity was observed | cell killing activity | LC50 [5]: not able to reach LC50 value |
| N#Cc1ccc(OCC(O)(Cc2ccccc2)C(=O)Nc2ccc(C#N)c(C(F)(F)F)c2)cc1 (stereo in doubt) [(R)-XXIV-9] | 6.4 | 16.2 to 20 | cell killing activity | 17.4 | maintain their cytostatic and cytocidal activity | 7.1 | n.r. | maintain their cytostatic and cytocidal activity | did not display toxicity | cell killing activity |  |
| CC[C@](O)(CS(=O)(=O)c1ccc(F)cc1)C(=O)Nc1ccc(C#N)c(C(F)(F)F)c1 [(R)-XXIII-2] |  |  | weak cytostatic effect |  | negligible cytotoxic activity |  | n.r. | negligible cytotoxic activity | did not display toxicity | weak cytostatic effect | GI50 [1, 10]: n.r.; LC50 [1, 10]: n.r.; GI50 [3, 9]: n.r. |
